Columns and labels:
ABUTH [1] = assay: Herbicidal pre-emergence action, section C (Table C1); format: in vivo, Abutilon theophrasti; settings: application rate 320 g/ha; visual grading after ca. 3 weeks
KCHSC = assay: Herbicidal pre-emergence action (Table A10); format: in vivo, Kochia scoparia; settings: visual grading after ca. 3 weeks
In short: (§1)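 Paired sowings (monocot weed with dicot weed) in potted sandy loam, seeds soil-covered.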

SETVI [2] = assay: Herbicidal pre-emergence action, section C (Table C10); format: in vivo, Setaria viridis; settings: visual grading after ca. 3 weeks
ECHCG [3] = assay: Herbicidal post-emergence action (Table B3); format: in vivo, Echinochloa crus-galli; settings: application rate 1280 g/ha, rated visually after about 3 weeks
In short: (§2)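 Treated at one-leaf stage (2–3 weeks after sowing in sandy loam, greenhouse-grown). Visual efficacy rating after about 3 weeks; 0% = like controls, 100% = complete kill.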

ALOMY [4] = assay: Herbicidal post-emergence action, section E (Table E2); format: in vivo, Alopecurus myosuroides; settings: application rate 80 g/ha; assessed visually after ca. 3 weeks
Excerpt: (§3) 2 to 3 weeks after sowing, the test plants were sprayed in the single-leaf stage.

LOLRI [5] = assay: Herbicidal pre-emergence action (Table A3); format: in vivo, Lolium rigidum; settings: application rate 320 g/ha, visual grading after ca. 3 weeks
In short: as §1

VERPE [6] = assay: Herbicidal pre-emergence action (Table A11); format: in vivo, Veronica persica; settings: application rate 1280 g/ha; visual grading after ca. 3 weeks
In short: as §1

VERPE [7] = assay: Herbicidal post-emergence action (Table B10); format: in vivo, Veronica persica; settings: application rate 1280 g/ha
In short: as §2

SETVI [8] = assay: Herbicidal pre-emergence action (Table A5); format: in vivo, Setaria viridis; settings: visual grading after ca. 3 weeks
In short: as §1

LOLRI [9] = assay: Herbicidal pre-emergence action, section C (Table C7); format: in vivo, Lolium rigidum; settings: application rate 320 g/ha; visual grading after ca. 3 weeks
SETVI [10] = assay: Herbicidal post-emergence action (Table B8); format: in vivo, Setaria viridis; settings: application rate 1280 g/ha
In short: as §2

ECHCG [11] = assay: Herbicidal pre-emergence action, section C (Table C6); format: in vivo, Echinochloa crus-galli; settings: application rate 80 g/ha; visual grading after ca. 3 weeks
TRZAS = assay: Post-emergence effects on crop plants (Table F2); format: in vivo, Triticum aestivum; settings: application rate 320 g/ha, crop plant TRZAS
Excerpt: as §3

ORYZA [12] = assay: Post-emergence effects on crop plants (Table F3); format: in vivo, Oryza sativa; settings: crop plant ORYZA
Excerpt: as §3

SETVI [13] = assay: Herbicidal post-emergence action, section E (Table E8); format: in vivo, Setaria viridis; settings: application rate 320 g/ha; assessed visually after ca. 3 weeks
Excerpt: as §3

ECHCG [14] = assay: Herbicidal post-emergence action, section E (Table E5); format: in vivo, Echinochloa crus-galli; settings: application rate 320 g/ha; assessed visually after ca. 3 weeks
Excerpt: as §3

ABUTH [15] = assay: Herbicidal post-emergence action, section E (Table E1); format: in vivo, Abutilon theophrasti; settings: application rate 320 g/ha; assessed visually after ca. 3 weeks
Excerpt: as §3

MATIN [16] = assay: Herbicidal pre-emergence action, section C (Table C8); format: in vivo, Matricaria inodora; settings: application rate 320 g/ha; visual grading after ca. 3 weeks
VERPE [17] = assay: Herbicidal pre-emergence action, section C (Table C11); format: in vivo, Veronica persica; settings: application rate 320 g/ha; visual grading after ca. 3 weeks
BRSNW = assay: Post-emergence effects on crop plants (Table F5); format: in vivo, Brassica napus; settings: application rate 320 g/ha, crop plant BRSNW
Excerpt: as §3

ALOMY [18] = assay: Herbicidal pre-emergence action, section C (Table C2); format: in vivo, Alopecurus myosuroides; settings: application rate 320 g/ha; visual grading after ca. 3 weeks
ECHCG [19] = assay: Herbicidal pre-emergence action (Table A2); format: in vivo, Echinochloa crus-galli; settings: visual grading after ca. 3 weeks
In short: as §1

VIOTR [20] = assay: Herbicidal pre-emergence action, section C (Table C12); format: in vivo, Viola tricolor; settings: application rate 80 g/ha; visual grading after ca. 3 weeks
MATIN [21] = assay: Herbicidal pre-emergence action (Table A4); format: in vivo, Matricaria inodora; settings: visual grading after ca. 3 weeks
In short: as §1

POLCO = assay: Herbicidal pre-emergence action, section C (Table C9); format: in vivo, Polygonum convolvulus; settings: application rate 320 g/ha; visual grading after ca. 3 weeks
Excerpt: (§4) Seeds of mono- and dicotyledonous weed plants and crop plants were sown, in plastic or organic planting pots, in sandy loam and covered with soil. The compounds according to the invention, formulated in the form of wettable powders (WP) or as emulsifiable concentrates (EC), were applied to the surface of the covering soil as aqueous suspension or emulsion, with the addition of 0.5% of an additive, at an application rate of 600 1 of water/ha (converted). Following treatment, the pots were placed in a greenhouse and kept under optimum growth conditions for the test plants.

ALOMY [22] = assay: Herbicidal pre-emergence action (Table A9); format: in vivo, Alopecurus myosuroides; settings: application rate 1280 g/ha; visual grading after ca. 3 weeks
In short: as §1

ABUTH [23] = assay: Herbicidal pre-emergence action (Table A1); format: in vivo, Abutilon theophrasti; settings: application rate 1280 g/ha; visual grading after ca. 3 weeks vs untreated controls (100% = plants have died off, 0% = as control plants)
In short: as §1

POAAN [24] = assay: Herbicidal pre-emergence action (Table A7); format: in vivo, Poa annua; settings: visual grading after ca. 3 weeks
In short: as §1

POAAN [25] = assay: Herbicidal post-emergence action (Table B7); format: in vivo, Poa annua; settings: application rate 1280 g/ha
In short: as §2

ALOMY [26] = assay: Herbicidal post-emergence action (Table B2); format: in vivo, Alopecurus myosuroides; settings: application rate 1280 g/ha; rated visually after about 3 weeks
In short: as §2

DIGSA [27] = assay: Herbicidal pre-emergence action, section C (Table C5); format: in vivo, Digitaria sanguinalis; settings: application rate 80 g/ha; visual grading after ca. 3 weeks
Excerpt: as §4

AMARE = assay: Herbicidal pre-emergence action (Table A8); format: in vivo, Amaranthus retroflexus; settings: application rate 1280 g/ha; visual grading after ca. 3 weeks vs untreated controls (100% = plants have died off, 0% = as control plants)
In short: as §1

DIGSA [28] = assay: Herbicidal post-emergence action (Table B12); format: in vivo, Digitaria sanguinalis; settings: application rate 1280 g/ha
Procedure: Seeds of mono- and dicotyledonous weed plants were placed in plastic pots in sandy loam soil (doubly sown with in each case one species of mono- or dicotyledonous weed plants per pot), covered with soil and cultivated in a greenhouse under controlled growth conditions. 2 to 3 weeks after sowing, the test plants were treated at the one-leaf stage. […] After the test plants had been kept in the greenhouse under optimum growth conditions for about 3 weeks, the activity of the preparations was rated visually in comparison to untreated controls. For example, 100% activity = the plants have died, 0% activity = like control plants.

ZEAMX [29] = assay: Pre-emergence effects on crop plants (Table D1); format: in vivo, Zea mays; settings: crop plant; application rate 80 g/ha; visual grading after ca. 3 weeks
DIGSA [30] = assay: Herbicidal pre-emergence action (Table A12); format: in vivo, Digitaria sanguinalis; settings: application rate 320 g/ha; visual grading after ca. 3 weeks
In short: as §1

ZEAMX [31] = assay: Post-emergence effects on crop plants (Table F1); format: in vivo, Zea mays; settings: application rate 320 g/ha, crop plant ZEAMX
Excerpt: as §3

VIOTR [32] = assay: Herbicidal post-emergence action, section E (Table E10); format: in vivo, Viola tricolor; settings: application rate 320 g/ha; assessed visually after ca. 3 weeks
Excerpt: as §3

STEME = assay: Herbicidal pre-emergence action (Table A6); format: in vivo, Stellaria media; settings: application rate 320 g/ha; visual grading after ca. 3 weeks
In short: as §1

ORYZA [33] = assay: Pre-emergence effects on crop plants (Table D3); settings: crop plant; application rate 80 g/ha; visual grading after ca. 3 weeks

O=C1N(Cc2ccccc2)CCCC12CCCN(Cc1ccccc1F)C2=O (racemic) [I-010, 2-benzyl-8-(2-fluorobenzyl)-2,8-diazaspiro[5.5]undecane-1,7-dione]
pre-emergence activity against ABUTH (ABUTH [1]): 90% | pre-emergence activity against KCHSC (KCHSC; application rate 1280 g/ha): 90% | pre-emergence activity against SETVI (SETVI [2]; application rate 80 g/ha): 100% | pest or weed control at 1280 g/ha (ECHCG [3]; Echinochloa crus-galli, post-emergence, 504 h, read-out: post-emergence activity against ECHCG): 90% | post-emergence activity against ALOMY (ALOMY [4]): 80% | pest or weed control at 320 g/ha (LOLRI [5]; Lolium rigidum, pre-emergence, 504 h, read-out: pre-emergence activity against LOLRI): 100% | pre-emergence activity against VERPE (VERPE [6]): 90% | post-emergence activity against VERPE (VERPE [7]): 90% | pre-emergence activity against SETVI (SETVI [8]; application rate 1280 g/ha): 90% | pre-emergence activity against LOLRI (LOLRI [9]): 100% | post-emergence activity against SETVI (SETVI [10]): 90% | pre-emergence activity against ECHCG (ECHCG [11]): 100% | post-emergence activity against TRZAS (TRZAS): 0% | post-emergence activity against ORYZA (ORYZA [12]; application rate 80 g/ha): 0% | post-emergence activity against SETVI (SETVI [13]): 80% | post-emergence activity against ECHCG (ECHCG [14]): 90% | post-emergence activity against ABUTH (ABUTH [15]): 80% | pre-emergence activity against MATIN (MATIN [16]): 90% | pre-emergence activity against VERPE (VERPE [17]): 80% | post-emergence activity against BRSNW (BRSNW): 0% | pre-emergence activity against ALOMY (ALOMY [18]): 100% | pre-emergence activity against ECHCG (ECHCG [19]; application rate 320 g/ha): 100% | pre-emergence activity against VIOTR (VIOTR [20]): 80% | pre-emergence activity against MATIN (MATIN [21]; application rate 320 g/ha): 90% | pre-emergence activity against POLCO (POLCO): 80% | pre-emergence activity against ALOMY (ALOMY [22]): 90% | pre-emergence activity against ABUTH (ABUTH [23]): 90% | pest or weed control at 1280 g/ha (POAAN [24]; Poa annua, pre-emergence, 504 h, application rate 1280 g/ha, read-out: pre-emergence activity against POAAN): 100% | post-emergence activity against POAAN (POAAN [25]): 90% | post-emergence activity against ALOMY (ALOMY [26]): 90%

O=C1N(Cc2ccccc2F)CCCC12CCN(Cc1c(F)cccc1F)C2=O (racemic) [I-020]
pre-emergence activity against ABUTH (ABUTH [1]): 90% | pre-emergence activity against DIGSA (DIGSA [27]): 100% | pre-emergence activity against KCHSC (KCHSC; application rate 320 g/ha): 90% | pre-emergence activity against SETVI (SETVI [2]; application rate 320 g/ha): 100% | pre-emergence activity against AMARE (AMARE): 90% | post-emergence activity against ECHCG (ECHCG [3]): 90% | pre-emergence activity against LOLRI (LOLRI [5]): 100% | pre-emergence activity against VERPE (VERPE [6]): 90% | pre-emergence activity against SETVI (SETVI [8]; application rate 320 g/ha): 100% | pre-emergence activity against LOLRI (LOLRI [9]): 100% | post-emergence activity against SETVI (SETVI [10]): 90% | post-emergence activity against DIGSA (DIGSA [28]): 90% | pre-emergence activity against ECHCG (ECHCG [11]): 100% | pre-emergence activity against ZEAMX (ZEAMX [29]): 0% | pre-emergence activity against DIGSA (DIGSA [30]): 100% | post-emergence activity against TRZAS (TRZAS): 0% | post-emergence activity against ORYZA (ORYZA [12]; application rate 320 g/ha): 0% | post-emergence activity against ZEAMX (ZEAMX [31]): 20% | post-emergence activity against VIOTR (VIOTR [32]): 80% | pre-emergence activity against STEME (STEME): 90% | post-emergence activity against ABUTH (ABUTH [15]): 80% | pre-emergence activity against MATIN (MATIN [16]): 80% | pre-emergence activity against VERPE (VERPE [17]): 90% | pre-emergence activity against ALOMY (ALOMY [18]): 100% | pre-emergence activity against ECHCG (ECHCG [19]; application rate 1280 g/ha): 100% | pre-emergence activity against VIOTR (VIOTR [20]): 90% | pre-emergence activity against MATIN (MATIN [21]; application rate 1280 g/ha): 90% | pre-emergence activity against ALOMY (ALOMY [22]): 90% | pre-emergence activity against ABUTH (ABUTH [23]): 90% | pre-emergence activity against POAAN (POAAN [24]; application rate 320 g/ha): 100% | pre-emergence activity against ORYZA (ORYZA [33]): 0%
